Laboratory results as given in ChEMBL document CHEMBL1201862, “PubChem BioAssay data set” (2004).
Active and inactive are the calls of the source.

Legend:
[1] = target: T1, Eukaryotic translation initiation factor 2-alpha kinase 3 (Homo sapiens, UniProt Q9NZJ5); experiment: Dose response cell-based high-throughput screening assay to measure PERK inhibition. [Related pubchem assays: 1416 ]; type: functional
T1 sequence (Q9NZJ5 whole entry): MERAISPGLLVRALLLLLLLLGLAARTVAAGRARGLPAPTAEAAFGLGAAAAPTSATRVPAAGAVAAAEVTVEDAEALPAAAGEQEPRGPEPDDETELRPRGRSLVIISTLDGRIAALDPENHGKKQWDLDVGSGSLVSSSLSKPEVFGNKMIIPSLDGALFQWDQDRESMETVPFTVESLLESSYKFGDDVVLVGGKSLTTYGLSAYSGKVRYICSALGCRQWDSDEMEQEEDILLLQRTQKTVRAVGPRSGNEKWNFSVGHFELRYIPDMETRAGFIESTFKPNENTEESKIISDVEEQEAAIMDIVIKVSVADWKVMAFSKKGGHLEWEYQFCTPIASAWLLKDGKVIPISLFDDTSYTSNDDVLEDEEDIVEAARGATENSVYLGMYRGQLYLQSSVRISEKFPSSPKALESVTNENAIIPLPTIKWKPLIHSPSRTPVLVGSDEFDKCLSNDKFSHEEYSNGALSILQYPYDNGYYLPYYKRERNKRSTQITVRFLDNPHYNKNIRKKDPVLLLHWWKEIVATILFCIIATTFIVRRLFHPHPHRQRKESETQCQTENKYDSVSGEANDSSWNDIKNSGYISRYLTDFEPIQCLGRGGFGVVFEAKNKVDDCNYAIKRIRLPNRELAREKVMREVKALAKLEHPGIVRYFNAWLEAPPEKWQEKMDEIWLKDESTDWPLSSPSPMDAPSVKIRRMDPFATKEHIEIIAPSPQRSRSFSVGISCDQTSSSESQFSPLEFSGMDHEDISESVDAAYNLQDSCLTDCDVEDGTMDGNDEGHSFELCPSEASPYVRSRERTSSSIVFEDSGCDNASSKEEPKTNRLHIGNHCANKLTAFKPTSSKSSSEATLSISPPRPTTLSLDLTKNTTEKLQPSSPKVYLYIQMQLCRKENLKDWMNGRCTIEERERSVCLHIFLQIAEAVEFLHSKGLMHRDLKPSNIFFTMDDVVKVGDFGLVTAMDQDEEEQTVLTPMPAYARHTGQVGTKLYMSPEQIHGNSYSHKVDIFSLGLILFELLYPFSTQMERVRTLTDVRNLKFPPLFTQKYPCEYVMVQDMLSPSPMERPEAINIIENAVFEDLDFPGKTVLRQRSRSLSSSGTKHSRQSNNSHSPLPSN

[2] = target: T1, Eukaryotic translation initiation factor 2-alpha kinase 3; experiment: Counterscreen assay for PERK inhibitors: Dose response cell-based high throughput screening assay to measure inhibition of PERK at 6 hours. [Related pubchem assays: 1522, 1416 ]; type: functional
CAAX prenyl protease 2 = target: T2, CAAX prenyl protease 2 (Saccharomyces cerevisiae S288c, UniProt Q03530); type: biochemical
T2 sequence (Q03530 whole entry): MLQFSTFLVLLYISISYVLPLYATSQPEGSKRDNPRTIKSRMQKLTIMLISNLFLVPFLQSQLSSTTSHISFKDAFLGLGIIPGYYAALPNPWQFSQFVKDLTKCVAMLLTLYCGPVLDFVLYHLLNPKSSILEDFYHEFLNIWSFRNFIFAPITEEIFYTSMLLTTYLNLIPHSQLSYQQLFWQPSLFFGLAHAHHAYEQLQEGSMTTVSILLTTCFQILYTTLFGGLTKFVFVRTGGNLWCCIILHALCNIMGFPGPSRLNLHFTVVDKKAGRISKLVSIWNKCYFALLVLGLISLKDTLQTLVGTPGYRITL

Fatty acid synthase = Fatty acid synthase (Homo sapiens, UniProt P49327); experiment: FAS thioesterase domain inhibitors, dose response, biochemical, kinetic fluorescence intensity (AID 624326); type: functional;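 further: rate of fluorescence rise from hydrolysis of a fluorogenic O-methyl fluorescein ester substrate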
[3] = target: T3, Voltage-gated N-type calcium channel alpha-1B subunit/Amyloid beta A4 precursor protein-binding family A member 1 (Homo sapiens, UniProt Q00975+Q02410); type: protein assay
T3 sequence (Q00975 whole entry): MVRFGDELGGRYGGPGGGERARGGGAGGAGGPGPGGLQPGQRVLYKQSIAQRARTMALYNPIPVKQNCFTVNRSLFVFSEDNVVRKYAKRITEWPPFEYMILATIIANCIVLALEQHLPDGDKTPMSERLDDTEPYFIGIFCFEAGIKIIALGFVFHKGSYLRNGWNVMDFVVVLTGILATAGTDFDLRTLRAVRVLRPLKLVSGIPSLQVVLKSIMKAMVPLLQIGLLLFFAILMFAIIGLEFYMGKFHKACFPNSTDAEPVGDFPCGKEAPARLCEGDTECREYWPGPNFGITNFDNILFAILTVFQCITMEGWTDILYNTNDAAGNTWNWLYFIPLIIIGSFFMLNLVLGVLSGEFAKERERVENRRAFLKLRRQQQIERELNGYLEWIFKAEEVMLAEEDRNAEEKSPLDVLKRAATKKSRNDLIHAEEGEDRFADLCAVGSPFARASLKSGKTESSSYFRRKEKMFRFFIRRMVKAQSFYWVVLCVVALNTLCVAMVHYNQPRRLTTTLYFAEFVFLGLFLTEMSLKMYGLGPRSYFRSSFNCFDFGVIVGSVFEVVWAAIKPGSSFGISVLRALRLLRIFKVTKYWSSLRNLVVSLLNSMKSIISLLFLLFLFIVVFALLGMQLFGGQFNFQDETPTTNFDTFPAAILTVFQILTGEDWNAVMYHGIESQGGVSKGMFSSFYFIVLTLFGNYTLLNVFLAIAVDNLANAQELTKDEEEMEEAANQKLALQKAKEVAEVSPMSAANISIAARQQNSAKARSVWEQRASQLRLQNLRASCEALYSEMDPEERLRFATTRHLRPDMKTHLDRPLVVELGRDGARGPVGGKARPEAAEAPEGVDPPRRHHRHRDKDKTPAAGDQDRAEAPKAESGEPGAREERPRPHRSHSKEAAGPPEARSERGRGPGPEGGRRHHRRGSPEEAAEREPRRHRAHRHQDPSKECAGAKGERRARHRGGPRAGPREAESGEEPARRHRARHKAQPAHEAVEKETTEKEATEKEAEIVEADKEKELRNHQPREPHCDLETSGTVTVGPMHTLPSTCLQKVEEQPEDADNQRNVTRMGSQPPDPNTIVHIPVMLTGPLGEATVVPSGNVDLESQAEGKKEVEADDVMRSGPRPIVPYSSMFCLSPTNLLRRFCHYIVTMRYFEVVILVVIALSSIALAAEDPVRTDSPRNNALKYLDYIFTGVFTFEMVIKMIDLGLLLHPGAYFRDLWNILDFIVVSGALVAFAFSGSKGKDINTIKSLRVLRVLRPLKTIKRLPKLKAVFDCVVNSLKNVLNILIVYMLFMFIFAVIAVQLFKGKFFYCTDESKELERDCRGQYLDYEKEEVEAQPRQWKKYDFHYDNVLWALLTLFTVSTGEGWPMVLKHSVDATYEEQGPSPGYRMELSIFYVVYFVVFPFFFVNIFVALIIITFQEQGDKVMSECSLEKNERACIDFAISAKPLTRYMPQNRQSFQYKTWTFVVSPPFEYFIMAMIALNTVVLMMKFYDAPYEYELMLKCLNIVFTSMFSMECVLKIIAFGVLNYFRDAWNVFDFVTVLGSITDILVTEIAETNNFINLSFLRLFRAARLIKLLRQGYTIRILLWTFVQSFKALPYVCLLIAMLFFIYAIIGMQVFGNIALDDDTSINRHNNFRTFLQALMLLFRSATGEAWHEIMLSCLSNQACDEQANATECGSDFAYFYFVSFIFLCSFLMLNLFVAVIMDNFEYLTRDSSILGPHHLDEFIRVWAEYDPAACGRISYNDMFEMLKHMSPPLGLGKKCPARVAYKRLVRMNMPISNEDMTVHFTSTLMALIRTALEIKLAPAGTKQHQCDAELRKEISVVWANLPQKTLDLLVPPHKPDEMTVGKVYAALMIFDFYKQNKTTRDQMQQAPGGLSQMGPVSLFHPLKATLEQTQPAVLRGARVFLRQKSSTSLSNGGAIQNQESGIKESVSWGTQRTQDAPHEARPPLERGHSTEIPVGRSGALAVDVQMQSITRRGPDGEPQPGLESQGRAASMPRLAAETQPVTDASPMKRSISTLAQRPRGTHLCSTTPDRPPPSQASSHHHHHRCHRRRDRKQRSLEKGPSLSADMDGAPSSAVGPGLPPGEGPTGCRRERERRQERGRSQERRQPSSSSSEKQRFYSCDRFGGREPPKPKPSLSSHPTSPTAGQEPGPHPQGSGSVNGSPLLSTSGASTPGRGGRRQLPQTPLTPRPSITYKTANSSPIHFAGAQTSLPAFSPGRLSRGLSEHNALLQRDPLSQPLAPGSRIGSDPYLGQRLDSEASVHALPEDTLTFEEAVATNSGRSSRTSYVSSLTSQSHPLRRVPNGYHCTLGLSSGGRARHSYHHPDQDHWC
T3 sequence (Q02410 whole entry): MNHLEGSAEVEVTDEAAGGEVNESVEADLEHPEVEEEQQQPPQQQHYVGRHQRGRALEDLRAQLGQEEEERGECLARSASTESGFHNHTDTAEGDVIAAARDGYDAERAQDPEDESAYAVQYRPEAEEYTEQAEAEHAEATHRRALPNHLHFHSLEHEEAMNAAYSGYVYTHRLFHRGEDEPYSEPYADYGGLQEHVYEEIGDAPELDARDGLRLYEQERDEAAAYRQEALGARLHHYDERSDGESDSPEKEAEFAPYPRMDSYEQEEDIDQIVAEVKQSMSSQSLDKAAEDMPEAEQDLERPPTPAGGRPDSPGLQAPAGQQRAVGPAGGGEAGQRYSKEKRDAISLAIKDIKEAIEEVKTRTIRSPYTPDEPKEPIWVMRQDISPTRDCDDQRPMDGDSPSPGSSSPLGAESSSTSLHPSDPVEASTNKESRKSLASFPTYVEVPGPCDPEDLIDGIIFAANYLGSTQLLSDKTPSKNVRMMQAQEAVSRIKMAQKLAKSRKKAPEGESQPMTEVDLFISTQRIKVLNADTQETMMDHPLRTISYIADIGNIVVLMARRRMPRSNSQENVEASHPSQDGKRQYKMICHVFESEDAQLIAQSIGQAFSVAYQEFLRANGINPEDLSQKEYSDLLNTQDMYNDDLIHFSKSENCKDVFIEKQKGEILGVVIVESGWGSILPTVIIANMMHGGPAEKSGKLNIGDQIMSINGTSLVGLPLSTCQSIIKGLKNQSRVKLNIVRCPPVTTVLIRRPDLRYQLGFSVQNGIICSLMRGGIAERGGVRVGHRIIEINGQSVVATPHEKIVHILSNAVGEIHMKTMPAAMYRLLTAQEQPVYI

[4] = target: T4, Small ubiquitin-related modifier 1 (Homo sapiens, UniProt P63165); experiment: inhibitors of SUMO1 peptide binding, dose response, biochemical, fluorescence polarization, uHTS hits (AID 624382); type: functional; details: read-out: IC50_Mean
T4 sequence (P63165 whole entry): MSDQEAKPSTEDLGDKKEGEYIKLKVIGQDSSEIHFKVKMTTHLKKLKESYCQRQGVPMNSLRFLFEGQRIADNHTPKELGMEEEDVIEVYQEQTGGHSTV

[5] = target: T4, Small ubiquitin-related modifier 1; experiment: inhibitors of SUMO1 partner interactions, dose response, biochemical, FRET (AID 624383); type: functional; details: read-out: IC50_Mean
[6] = target: T3, Voltage-gated N-type calcium channel alpha-1B subunit/Amyloid beta A4 precursor protein-binding family A member 1; type: protein assay; remark: listed apart in the source
[7] = target: DNA dC->dU-editing enzyme APOBEC-3A (Homo sapiens, UniProt P31941); experiment: APOBEC3A DNA deaminase inhibitors, dose response, biochemical (AID 504722); type: functional
Chain of DNA dC->dU-editing enzyme APOBEC-3A (P31941 whole entry): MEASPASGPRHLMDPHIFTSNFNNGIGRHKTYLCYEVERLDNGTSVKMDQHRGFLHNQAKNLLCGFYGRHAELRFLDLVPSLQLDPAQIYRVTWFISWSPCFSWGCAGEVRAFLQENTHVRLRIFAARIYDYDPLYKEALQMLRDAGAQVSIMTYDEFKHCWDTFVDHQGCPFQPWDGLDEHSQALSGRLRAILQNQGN

[8] = target: DNA dC->dU-editing enzyme APOBEC-3G (Homo sapiens, UniProt Q9HC16); experiment: Dose Response confirmation of small molecule APOBEC3G DNA Deaminase Inhibitors via a fluorescence-based single-stranded DNA deaminase assay. [Related pubchem assays (depositor defined):AID493012, AID493028]; type: functional
Chain of DNA dC->dU-editing enzyme APOBEC-3G (Q9HC16 whole entry): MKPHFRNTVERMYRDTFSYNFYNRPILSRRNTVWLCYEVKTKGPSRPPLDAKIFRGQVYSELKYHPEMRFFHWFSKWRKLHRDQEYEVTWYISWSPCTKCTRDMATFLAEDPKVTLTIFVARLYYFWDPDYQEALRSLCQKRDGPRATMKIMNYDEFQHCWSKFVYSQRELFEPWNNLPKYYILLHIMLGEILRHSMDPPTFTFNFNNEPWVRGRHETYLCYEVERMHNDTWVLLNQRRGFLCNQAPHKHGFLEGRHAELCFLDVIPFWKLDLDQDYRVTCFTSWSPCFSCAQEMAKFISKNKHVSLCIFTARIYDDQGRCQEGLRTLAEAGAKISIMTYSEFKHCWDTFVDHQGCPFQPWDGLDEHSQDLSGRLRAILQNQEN

HEK293 [9] = experiment: cells; type: functional, cell-based; details: Homo sapiens
HEK293 [10] = experiment: NOD1 signaling inhibitors, primary screen, cell-based, luminescence, uHTS (AID 1578); type: functional; details: Homo sapiens
[11] = target: Nucleotide-binding oligomerization domain-containing protein 2 (Homo sapiens, UniProt Q9HC29); experiment: NOD2 signaling inhibitors, cell-based, luminescence, uHTS, HEK293 (AID 1566); type: functional
Chain of Nucleotide-binding oligomerization domain-containing protein 2 (Q9HC29 whole entry, the tested form may be a part): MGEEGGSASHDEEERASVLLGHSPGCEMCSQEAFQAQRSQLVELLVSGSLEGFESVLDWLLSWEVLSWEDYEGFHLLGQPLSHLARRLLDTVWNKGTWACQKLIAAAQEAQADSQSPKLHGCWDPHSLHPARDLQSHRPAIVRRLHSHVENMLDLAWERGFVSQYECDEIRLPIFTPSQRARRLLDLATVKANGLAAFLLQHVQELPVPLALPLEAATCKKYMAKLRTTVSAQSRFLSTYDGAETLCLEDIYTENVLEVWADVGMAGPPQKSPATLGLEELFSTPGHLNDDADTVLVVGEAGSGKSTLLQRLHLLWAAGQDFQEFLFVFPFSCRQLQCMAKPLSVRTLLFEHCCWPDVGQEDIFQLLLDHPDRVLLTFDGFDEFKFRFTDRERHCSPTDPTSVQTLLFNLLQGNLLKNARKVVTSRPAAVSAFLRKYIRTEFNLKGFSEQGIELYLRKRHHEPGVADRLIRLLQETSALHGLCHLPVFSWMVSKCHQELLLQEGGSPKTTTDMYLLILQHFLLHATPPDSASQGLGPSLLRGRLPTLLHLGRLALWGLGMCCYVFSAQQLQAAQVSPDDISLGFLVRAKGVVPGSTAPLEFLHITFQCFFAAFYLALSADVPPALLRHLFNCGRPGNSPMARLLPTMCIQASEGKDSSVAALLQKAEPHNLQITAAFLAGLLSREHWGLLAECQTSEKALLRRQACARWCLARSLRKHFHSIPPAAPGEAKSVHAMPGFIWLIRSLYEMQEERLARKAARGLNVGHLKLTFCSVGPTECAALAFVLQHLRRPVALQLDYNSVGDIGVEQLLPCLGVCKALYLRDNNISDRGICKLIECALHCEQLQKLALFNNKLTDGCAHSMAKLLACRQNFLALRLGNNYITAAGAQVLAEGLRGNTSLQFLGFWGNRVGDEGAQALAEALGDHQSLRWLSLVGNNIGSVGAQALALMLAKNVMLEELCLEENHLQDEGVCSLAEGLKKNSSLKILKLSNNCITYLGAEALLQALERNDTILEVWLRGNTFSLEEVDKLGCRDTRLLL

Protein RecA = target: T5, Protein RecA (Mycobacterium tuberculosis, UniProt P9WHJ3); experiment: Fluorescence Cell-Free Homogeneous Dose Retest to Identify Inhibitors of RecA-Intein Splicing Activity. [Related pubchem assays (depositor defined):AID2097, AID2223, AID489010, AID492950]; type: functional
T5 sequence (P9WHJ3 whole entry): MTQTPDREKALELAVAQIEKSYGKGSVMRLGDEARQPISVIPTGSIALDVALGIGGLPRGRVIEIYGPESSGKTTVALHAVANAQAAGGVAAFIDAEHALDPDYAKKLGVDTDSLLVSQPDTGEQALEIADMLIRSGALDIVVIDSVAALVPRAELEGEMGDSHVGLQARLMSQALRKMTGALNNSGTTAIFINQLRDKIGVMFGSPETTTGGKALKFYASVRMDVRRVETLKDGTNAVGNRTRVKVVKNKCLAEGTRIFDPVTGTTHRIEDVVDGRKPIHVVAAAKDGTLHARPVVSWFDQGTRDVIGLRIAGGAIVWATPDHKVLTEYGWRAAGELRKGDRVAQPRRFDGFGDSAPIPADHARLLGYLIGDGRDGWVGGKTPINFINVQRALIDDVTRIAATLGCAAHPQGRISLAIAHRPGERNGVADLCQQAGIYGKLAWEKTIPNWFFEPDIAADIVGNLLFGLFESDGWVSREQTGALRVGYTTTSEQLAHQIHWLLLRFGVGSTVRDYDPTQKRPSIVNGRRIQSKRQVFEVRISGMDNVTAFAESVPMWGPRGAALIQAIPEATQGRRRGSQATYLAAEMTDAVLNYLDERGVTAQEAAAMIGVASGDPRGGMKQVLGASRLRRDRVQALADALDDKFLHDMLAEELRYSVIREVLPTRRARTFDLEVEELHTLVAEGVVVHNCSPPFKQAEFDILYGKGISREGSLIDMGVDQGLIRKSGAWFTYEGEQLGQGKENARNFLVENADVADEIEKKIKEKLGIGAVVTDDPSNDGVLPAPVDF

[12] = microbe, parasite or virus in culture; type: functional; details: Mycobacterium tuberculosis
HEK293 [13] = experiment: NOD2 signaling inhibitors in MDP-stimulated cells, cell-based, uHTS, luminescence (AID 2001); type: functional; details: Homo sapiens
[14] = target: T6, Replicative DNA helicase DnaB (Mycobacterium tuberculosis, UniProt P9WMR3); experiment: DnaB intein splicing inhibitors, dose response, biochemical, cell-free fluorescence (AID 449749); type: functional
T6 sequence (P9WMR3 whole entry): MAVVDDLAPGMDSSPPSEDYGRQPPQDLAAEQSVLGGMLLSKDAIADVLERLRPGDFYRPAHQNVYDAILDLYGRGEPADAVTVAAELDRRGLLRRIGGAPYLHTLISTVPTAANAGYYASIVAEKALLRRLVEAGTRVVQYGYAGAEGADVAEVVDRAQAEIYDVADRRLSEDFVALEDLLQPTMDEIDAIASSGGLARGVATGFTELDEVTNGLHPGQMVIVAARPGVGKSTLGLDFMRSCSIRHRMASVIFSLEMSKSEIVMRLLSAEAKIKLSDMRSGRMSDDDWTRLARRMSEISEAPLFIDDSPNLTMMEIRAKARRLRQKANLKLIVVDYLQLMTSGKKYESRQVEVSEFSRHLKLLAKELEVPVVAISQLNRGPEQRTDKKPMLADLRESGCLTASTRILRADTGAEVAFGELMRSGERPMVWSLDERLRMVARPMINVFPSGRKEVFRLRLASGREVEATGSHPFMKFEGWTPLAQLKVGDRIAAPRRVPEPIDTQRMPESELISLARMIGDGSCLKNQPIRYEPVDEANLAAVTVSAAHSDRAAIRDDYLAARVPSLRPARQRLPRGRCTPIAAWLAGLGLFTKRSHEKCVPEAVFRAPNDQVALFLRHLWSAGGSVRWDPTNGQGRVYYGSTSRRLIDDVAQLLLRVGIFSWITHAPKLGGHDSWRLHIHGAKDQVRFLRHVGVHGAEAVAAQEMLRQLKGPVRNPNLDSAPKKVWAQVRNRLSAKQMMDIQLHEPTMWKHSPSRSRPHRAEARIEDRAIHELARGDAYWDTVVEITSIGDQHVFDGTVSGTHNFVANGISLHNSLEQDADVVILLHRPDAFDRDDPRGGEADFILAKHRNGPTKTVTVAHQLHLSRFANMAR

HEK293 [15] = experiment: cells; type: functional, cell-based; details: Homo sapiens; remark: listed apart in the source
HEK293 [16] = experiment: cells; type: functional, cell-based; details: Homo sapiens; remark: listed apart in the source
Large T antigen = Large T antigen (Simian virus 40, UniProt P03070); type: functional, Betapolyomavirus macacae;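 further: Confirmatory-stage PubChem screen for compounds that inhibit SV40 T antigen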
[17] = target: T7, Rac GTPase-activating protein 1 (Homo sapiens, UniProt Q9H0H5); experiment: MgcRacGAP GTPase-activating activity inhibitors, confirmation, biochemical, ADP Hunter fluorescence, primary and confirmatory (AID 624330); type: functional
T7 sequence (Q9H0H5 whole entry): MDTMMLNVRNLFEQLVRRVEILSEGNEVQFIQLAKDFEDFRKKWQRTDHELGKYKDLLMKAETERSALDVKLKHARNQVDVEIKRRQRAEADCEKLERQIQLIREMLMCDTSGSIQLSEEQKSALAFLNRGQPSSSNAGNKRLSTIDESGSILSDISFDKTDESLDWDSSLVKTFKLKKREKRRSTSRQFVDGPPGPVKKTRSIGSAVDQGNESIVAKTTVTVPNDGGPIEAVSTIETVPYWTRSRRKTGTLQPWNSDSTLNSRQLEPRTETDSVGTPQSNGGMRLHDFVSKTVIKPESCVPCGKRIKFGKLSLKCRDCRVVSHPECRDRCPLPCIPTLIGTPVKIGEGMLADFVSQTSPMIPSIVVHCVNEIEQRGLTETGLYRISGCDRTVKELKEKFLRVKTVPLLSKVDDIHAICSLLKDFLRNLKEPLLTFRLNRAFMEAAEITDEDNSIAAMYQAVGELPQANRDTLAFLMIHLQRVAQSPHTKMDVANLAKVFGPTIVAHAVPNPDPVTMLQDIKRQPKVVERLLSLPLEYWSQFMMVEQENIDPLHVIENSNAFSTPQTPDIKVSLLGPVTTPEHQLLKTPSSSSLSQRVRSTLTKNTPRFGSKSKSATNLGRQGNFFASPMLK

## CC(C)(C)NS(=O)(=O)c1cccc2nsnc12
[1]
  EC50: > 55.7 µM (not active)
[2]
  EC50: > 55.7 µM (not active)

## O=S(=O)(c1ccc(-c2csc(Nc3ccc(F)cc3)n2)cc1)N1CCCC1
CAAX prenyl protease 2
  AC50: 19.8 µM (active)
Fatty acid synthase
  IC50: 15.2 µM (active)

## CC(=O)Nc1ccc(NC(=O)Nc2cc(C)cc(C)c2)cc1
[1]
  EC50: > 55.7 µM (not active)
[2]
  EC50: > 55.7 µM (not active)

## CC(OC(=O)c1ccc(NC(=O)CC#N)cc1)C(=O)Nc1ccc(Oc2ccccc2)cc1 (configuration not stated)
[3]
  IC50: > 50 µM (inactive)
[4]
  IC50: > 66.6 µM (inactive)
[5]
  IC50: 17.1 µM (active)
[6]
  IC50: 8.36 µM (active)

## O=C(Cc1ncon1)Nc1ccc(F)c(F)c1F
[1]
  EC50: > 55.7 µM (not active)
[2]
  EC50: > 55.7 µM (not active)

## S=c1nc(-c2ccccc2)n(-c2ccccc2)[nH]1
[7]
  IC50: > 100 µM (inactive)
[8]
  IC50: 7.02 µM (active)

## COc1ccc(-n2nc3c(c2NC(=O)CCl)CSC3)cc1
HEK293 [9]
  IC50: > 20 µM (inactive)
HEK293 [10]
  EC50: 13.1 µM (active)
[11]
  EC50: > 20 µM (inactive)
Protein RecA
  EC50: > 380 µM (inconclusive)
[12]
  CC50: 18 µM (active)
HEK293 [13]
  IC50: 14.8 µM (inactive)
[14]
  AC50: 13.6 µM (active)
HEK293 [15]
  IC50: 7.89 µM (active)
HEK293 [16]
  IC50: > 20 µM (inactive)

## Cc1cc(-c2nnc(S)n2/N=C/c2cccs2)[nH]n1
Large T antigen
  IC50: 55 µM (active)
[17]
  IC50: 87.8 µM (active)
[7]
  IC50: > 100 µM (inactive)
[8]
  IC50: 2.9 µM (active)
